Assays:
[1] = system: ICR mice; assay: Elevated plus maze experiment in mice, single administration; type: in vivo
Procedure: 50 male ICR mice were randomly divided into 5 groups (a solvent control group, estazolam group, M2 high dosage group, M2 medium dosage group, M2 low dosage group), with 10 mice in each group. The compound M2 high, medium and low dosage groups were intragastrically administered at 20 mg/kg. 10 mg/kg and 5 mg/kg, respectively; the positive drug estazolam was intragastrically administered at 2.5 mg/kg; and the solvent control group was gavaged with an equal volume of solvent. Behavior test was performed in each group 30 min after single administration. The experiments were required to be conducted between 8:00 am and […], and all animals entered the test laboratory on the previous day.
The laboratory was dimly lit (with the lowest brightness that can distinguish the subtle activities of mice at a distance of 1.5 m) and the brightness was kept constant, with a room temperature of about 20° C., and kept quiet. Before the maze test, each mouse was placed in a 35 cm*10 cm*5 cm plastic box and left to explore freely for 5 min and then quickly placed at the central platform of an elevated plus maze, with its head facing one of the open arms, and the following indexes were recorded upon release. Each mouse was tested for 5 min. Observers observed and recorded animal activities at a distance of 1.5 m. At intervals, the maze was wiped with a wet cloth to remove feces, and then wiped with a dry cloth before a next mouse was tested.
• (1) The number of open arm entries (OE): the number of entries into any open arm, based on the fact that all four claws of the mouse entered the arm, and a complete exit of one claw from the arm indicated the completion of the entry activity; • (2) open arm time (OT): the time of entering an open arm, with the unit of seconds; • (3) the number of close arm entries (CE): the number of entries into any close arm, based on the fact that all four claws of the mouse entered the arm; • (4) close arm time (CT): the time of entering a close arm, with the unit of seconds; • (5) percentage of open arm time: OT %=OT/(OT+CT)*100%; and • (6) percentage of open arm entries: OE %=OE/(OE+CE)*100%.
70 male ICR mice were randomly divided into 7 groups (a solvent control group, estazolam group, compound M2 group, compound II-3 group, compound II-4 group, compound II-5 group, and compound II-10 group), with 10 mice in each group. The dosage of M2 and its four structurally similar compounds was determined as 20 mg/kg according to the experimental results of 3.1: the positive drug estazolam was administered intragastrically at 2.5 mg/kg; and the solvent control group was gavaged with an equal volume of solvent. Behavior test was performed in each group 30 min after single administration. The experiments were required to be conducted between 8:00 am and […], and all animals entered the test laboratory on the previous day.
The behavioral test method and behavioral observation indexes were the same as those in 3.1.
(§1) Data was expressed as mean±standard (mean±SD) difference, and statistics of data differences were made by one-way analysis of variance (ANOVA) or nonparametric test, and differences between groups were determined by P<0.05.

[2] = system: SD rats; assay: Vogel drinking conflict experiment in rats, single administration; type: in vivo
Procedure: 75 male SD rats, with the body weight of 180-220 g, were fed adaptively for 1 week, water deprived for 24 h for training period test. The animals screened to be qualified were randomly divided into 7 groups (a solvent control group, estazolam group, compound M2 group, compound II-3 group, compound II-4 group, compound II-5 group and compound II-10 group) according to their body weight, with 8 rats in each group. […] results of 3.1: the positive drug estazolam was administered intragastrically at 1.24 mg/kg; and the solvent control group was gavaged with an equal volume of solvent. The grouped animals were continued to be water deprived for 24 h and were given a single dose, and tested in a punishment experiment 30 min after the single dose.
The experiment was carried out in two stages. The first stage is a training stage, in which 24 h after water deprivation, animals were placed in an operation box separately, and were allowed to fully explore until they found the bottle mouth and started to lick water (with an intensity of electric shock being 0 mA), a counter automatically recorded the number of licks within 3 min, and the animals that licked water less than 300 times were eliminated.
Observation index: the number of water licks of rats in the punishment stage.
as §1

[3] = system: mice; conditions: 10 mg/kg for 7 days; cited from earlier work
[4] = system: mice; conditions: 10 mg/kg continuously for 7 days; cited from earlier work
[5] = system: mice; conditions: mouse, in vivo; cited from earlier work
[6] = comparative study (Table 13), 20 mg/kg i.g., 30 min after single administration

O=C(/C=C/c1cc2c(c(C(F)(F)F)c1)OCO2)N1CCCCC1 [Compound II-10]
OE % [1, 6]: 50.00 ± 10.23 %
OT % [1, 6]: 52.08 ± 12.25 %
anxiolytic activity in elevated plus maze vs solvent control group ([1]; comparative study, single intragastric administration of 20 mg/kg): significant anxiolytic activity
Number of times of drinking water ([2]; 10 mg/kg i.g., 30 min after single dose, punishment stage 3 min, n = 8): 499.61 ± 133.93
anxiolytic activity in drinking conflict experiment vs solvent control group ([2]; single intragastric administration of 20 mg/kg): significant anxiolytic activity
immobility time of tail suspension in mice [3]: significantly shorten the immobility time
reserpine-induced body temperature decrease and akinesia in mice, degree of eye closure [4]: significantly antagonizing
immobility time of forced swimming in mice [5]: significantly shorten the immobility time

— patent US20240217946A1, “ANTIDEPRESSANT AND ANXIOLYTIC SUBSTITUTED CINNAMAMIDE COMPOUND” (TASLY PHARMACEUTICAL GROUP CO., LTD., priority 2021, published 2024)
